Results reported in patent US20060009618A1, “Expression receptors with 7 transmembrane domains in baculovirus-insect cell system” (priority 2002, published 2006).

What was measured:
[1] = tested on: non-infected Sf9 cells; experiment: Calcium imaging (fura-2) in non-infected Sf9 cells; assay type: cell-based, Spodoptera frugiperda; details: ionophore at 5 μM, FIG. 2 top graph
Protocol: In a first series of experiments, the possibility of measuring the calcium response in Sf9 cells using the calcium imaging technique was tested.
The protocol used for the assays is as follows:
(§1) Sf9 cells are cultured on 24-well plates containing 12 mm coverslips. Before the experiments, the culture medium is removed and washed with a buffer containing 10 mM of NaCl, 60 mM of KCl, 25 mM of MgCl2, 1.8 mM of CaCl2, 4 mM of D-glucose, 110 mM of sucrose and 10 mM of 2-(N-morpholino)ethanesulfonic acid; the pH is adjusted to 6.2 at ambient temperature with Trizma base.
The cells are incubated for 1 hour at ambient temperature in the dark with a solution of MBS containing fura 2-AM (4 μm) (molecular probe). […]
(§2) The fura-2 fluorescence measurements are carried out using a T.I.L.L Photonics GmbH, (Planegg) Polychrome II multipath wavelength illumination system for extinction. […] The acquisition and the calculation of the fluorescence images are carried out using the T.I.L.L-Vision program. […] The fluorescence ratios (f340/f380) are calculated for the intracellular Ca^2+ variations. […]
The Ca^2+ signals are the result of the mean determined on all the cells in the field of the camera (gray signal) and of the mean for the responding cells (black signal) (n=4).

[2] = tested on: octopamine receptor naturally present in Sf9 cells; experiment: Octopamine control, calcium imaging (fura-2) in Sf9 cells; assay type: cell-based, Spodoptera frugiperda; details: 50 μM
Protocol: as §1
The cells are incubated for 1 hour at ambient temperature in the dark with a solution of MBS containing fura 2-AM (4 μm) (molecular probe). The cells are then washed with an excess of MBS without fura 2-AM and mounted in a Coverwell chamber (Polylabo, France) (diameter: 9 mm; thickness: 2.5 mm; cross section: 22.5).
The chamber is placed under the microscope and the cells are perfused under gravity with 0.85 ml/min (3.78 cm/min) at ambient temperature (23° C.).
as §2, with “extinction. The microscope (Olympus) is equipped with a long-distance objective (×20). The spatio-temporal Ca^2+ distributions are studied using a PCO interline camera.” for “extinction.”

[3] = biological target: T1, HA-Gα16 (Gα16 protein with N-terminal HA epitope), expressed in Sf9 cells (human, UniProt P30679 1-374); experiment: colocalization by immunofluorescence, confocal microscopy, Sf9 cells infected with double-recombinant baculovirus
T1 construct: whole, on cells; Intracellular protein with a submembrane cytoplasmic location in infected Sf9 cells; also called Ga16; G16
T1 sequence (looked up): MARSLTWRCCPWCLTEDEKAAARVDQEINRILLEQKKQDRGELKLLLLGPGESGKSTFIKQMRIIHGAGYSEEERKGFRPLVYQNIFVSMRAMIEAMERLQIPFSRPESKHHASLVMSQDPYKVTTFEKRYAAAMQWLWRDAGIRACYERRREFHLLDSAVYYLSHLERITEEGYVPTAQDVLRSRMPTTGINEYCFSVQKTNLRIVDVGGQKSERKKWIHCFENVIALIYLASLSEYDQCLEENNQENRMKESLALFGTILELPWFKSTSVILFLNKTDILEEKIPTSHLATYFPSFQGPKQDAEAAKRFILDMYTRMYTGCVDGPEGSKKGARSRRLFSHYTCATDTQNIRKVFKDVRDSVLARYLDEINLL
Protocol: The cellular location of the ORs and of the G proteins were studied by immunofluorescence 36 hours after infection. The ORs are detected by means of an anti-FLAG primary antibody and an FITC-labeled secondary antibody. The G proteins are detected by means of a rhodamine-labeled anti-HA antibody.
The labeled cells are observed by confocal microscopy. In the cells infected with the AcMNPV209 and AcMNPV210 baculoviruses, labeling is observed to be located at the cell surface, with a punctate distribution typical of membrane receptors. In the cells infected with the AcSLP10G₁₆ and AcSLP10Golf baculoviruses, labeling is observed to have a submembrane cytoplasmic location. In the cells infected with the double-recombinant baculoviruses AcG₁₆-209, AcGolf-210, AcG₁₆-209 and AcGolf-210, colocalization of the receptor with each G protein co-expressed is observed. No major difference is observed between OR17-209 and OR17-210 as regards preferential binding with Golf or G₁₆. It therefore appears that these two receptors are capable of coupling to the two G proteins in insect cells.

CNc1c(Br)cc2oc(C[C@H]3O[C@@]4(CC[C@H]3C)O[C@H]([C@H](C)C(=O)c3ccc[nH]3)[C@H](C)C[C@H]4C)nc2c1C(=O)O [4-bromo A23187, 4-bromo-A23187]
intracellular Ca2+ variation (fluorescence ratio f340/f380) [1]: induces a large increase in intracellular calcium

NCC(O)c1ccc(O)cc1 (stereo not shown) [octopamine]
intracellular calcium ([2]; all baculovirus-infected Sf9 cells (OR17-209 or OR17-210 alone, with G16 or with Golf), 36 hours after infection, FIG. 3): induces an increase in intracellular calcium
intracellular Ca2+ variation (fluorescence ratio f340/f380) ([2]; non-infected Sf9 cells, FIG. 2 bottom graph, B): induces an increase in intracellular calcium

B1: human olfactory receptor OR17-209 with N-terminal FLAG epitope, expressed in Sf9 cells from baculovirus AcMNPV209 (receptor, UniProt P47890 1-313, looked up, not shown: small tags and cut ends)
chain: MEGKNLTSISECFLLGFSEQLEEQKPLFGSFLFMYLVTVAGNLLIILVIITDTQLHTPMYFFLANLSLADACFVSTTVPKMLANIQIQSQAISYSGCLLQLYFFMLFVMLEAFLLAVMAYDCYVAICHPLHYILIMSPGLCIFLVSASWIMNALHSLLHTLLMNSLSFCANHEIPHFFCDINPLLSLSCTDPFTNELVIFITGGLTGLICVLCLIISYTNVFSTILKIPSAQGKRKAFSTCSSHLSVVSLFFGTSFCVDFSSPSTHSAQKDTVASVMYTVVTPMLNPFIYSLRNQEIKSSLRKLIWVRKIHSP
notes: whole, on cells; The construct encodes EGT signal peptide, FLAG and receptor; also called OR-209
binding result [3]: binds
